Assay results: US20080234464A1, “Compound Having Amino Acid Residue or Peptide Residue and Process for Producing the Same” (priority 2005, published 2008)

Experiments:
Format in all cases: cell-based
[1] = test system: UMUC3 (human bladder carcinoma) cells; experiment: Nucleic acid transfection experiment (siRNA level), FITC-labeled siRNA, flow cytometer; settings: compounds (1-A)/(1-B): 0.6 mM), 0.5 μg FITC-labeled siRNA, 2 hours
Description: (§1) In order to attain 50 to 60% confluence at the time of siRNA transfection, PC3 ([…]) cells, UMUC3 (human bladder carcinoma) cells and T24 (human urinary bladder carcinoma) cells were separately seeded in a 6-well plate on the day before the transfection and cultured at 37° C. in a 5% CO2 incubator.
(§2) A 100-μl quantity of Opti-MEM was added to each of several 1.5-ml tubes, and two samples each of 1, 3 and 10 μl of PBS solution containing the carriers for nucleic acid transfection of Reference Example 3 in one of the two samples and Reference Example 8 in the other sample (each carrier for nucleic acid transfection content had been adjusted so that compound (1L-A) was at 0.067 mM) were separately added to each tube and then left to stand at room temperature for about 10 minutes. Further, 0.5 μg of FITC-labeled siRNA (fluorescent labeled siRNA ((sense)Fluo-[…]/(antisense)[…]: product of Proligo) was added to each tube and then left to stand for 15 minutes, forming a complex of siRNA and the carrier for gene transfection.
(§3) Separately, 50 μl of Opti-MEM was added to each of several 1.5-ml tubes, and two samples each of 1, 3 and 10 μl of PBS solution containing 0.6 mM compound (1-A) in one of the two samples and 0.6 mM compound (1-B) in the other sample were separately added to each tube, mixed by tapping, and then left to stand at room temperature for 5 minutes. Further, 0.5 μg of FITC-labeled siRNA (same as above) was added to each tube and then left to stand for 30 minutes, forming a complex of the siRNA and carrier for gene transfection.
(§4) After a while, the prepared solutions containing the siRNA and carrier for gene transfection were separately added to the wells in which the cells were present at 50 to 60% confluence. The plates were slowly pitched and rolled, and culture was then performed at 37° C. under a condition of 5% CO2 for 2 hours. After the culture was completed, FITC-positive cells were counted by a flow cytometer to calculate the siRNA transfection efficiency (%) in cells. Further, for comparison with conventional carriers for nucleic acid transfection (Lipofectamine 2000, TransIt-TKO, Metafectene, and oligofectamine), siRNA transfection efficiency (%) in cells was calculated in the same manner as above using the protocol recommended by the respective manufacture and corresponding to a transfection nucleic acid amount of 0.5 μg.

[2] = test system: PC3 (human lung adenocarcinoma) cells; experiment: as above; settings: compounds (1-A)/(1-B): 0.6 mM), 0.5 μg FITC-labeled siRNA, 2 hours
Description: as §1, §2, §3, §4

[3] = test system: T24 (human urinary bladder carcinoma) cells; experiment: as above; settings: compounds (1-A)/(1-B): 0.6 mM), 0.5 μg FITC-labeled siRNA, 2 hours
Description: as §1, §2, §3, §4

[4] = test system: UMUC3 (human bladder carcinoma) cells; experiment: Nucleic acid transfection experiment (oligo DNA level), FITC-labeled single-strand DNA, FACS; settings: 0.3 μg FITC-labeled single-strand DNA (20 mer), 4 hours at 37° C.
Description: (§5) PC3 ([…]) cells, UMUC3 (human bladder carcinoma) cells, T24 (human urinary bladder carcinoma) cells and NIH-3T3 (mouse embryonic fibroblast) cells were separately precultured in a 12-well plate, either in a 10% FBS-containing RPMI medium (PC3 cells, NIH-3T3 cells, and T24 cells) or in a 10% FBS-containing DMEM medium (UMUC cells), to attain a 60 to 70% confluent state.
(§6) A 1 μl quantity of each of the compounds shown in Table 1 [solutions containing compound (1-A) or (1-B) at 0.37, 0.13 and 0.04 mM] was added to each of a corresponding number of containers each holding 50 μl of non-serum medium, mixed by tapping, and incubated at room temperature for 5 minutes. Subsequently, 0.3 μg of FITC-labeled single-strand DNA (20 mer) (FITC-[…]: product of Proligo) was added to each of the above-prepared media containing a carrier for nucleic acid transfection, mixed by tapping, and incubated at 37° C. for 30 minutes (mixed by tapping every 10 minutes). The obtained mixtures were separately added to the above wells in which the cell culture had been completed, leveled by lightly tapping, and then incubated at 37° C. for 4 hours. The cells were collected, and FITC-positive cells were counted by FACS to calculate DNA transfection efficiency (%) in cells. Further, for the comparison with conventional carriers for nucleic acid transfection (Lipofectamine 2000, TransIt-TKO, and Fugene 6), siRNA transfection efficiency (%) in PC3 cells was calculated in the same manner as above using the protocol recommended by the respective manufacturer and corresponding to a transfection nucleic acid amount of 0.3 μg.

[5] = test system: PC3 (human lung adenocarcinoma) cells; experiment: as above; settings: for DNA transfection efficiency in cells (%): PC3, 0.3 μg FITC-labeled single-strand DNA (20 mer), 4 hours at 37° C.
Description: as §5, §6

[6] = test system: T24 (human urinary bladder carcinoma) cells; experiment: as above; settings: 0.3 μg FITC-labeled single-strand DNA (20 mer), 4 hours at 37° C.
Description: as §5, §6

[7] = test system: NIH-3T3 (mouse embryonic fibroblast) cells; experiment: as above; settings: 0.3 μg FITC-labeled single-strand DNA (20 mer), 4 hours at 37° C.
Description: as §5, §6

[8] = amount 1 μl of carrier solution (Reference Examples: 0.067 mM as compound (1L-A)
[9] = amount 3 μl of carrier solution (Reference Examples: 0.067 mM as compound (1L-A)
[10] = amount 10 μl of carrier solution (Reference Examples: 0.067 mM as compound (1L-A)
[11] = 1 μl of 0.04 mM compound solution
[12] = 1 μl of 0.13 mM compound solution
[13] = 1 μl of 0.37 mM compound solution

For N=C(N)NCCCC(N)C(=O)CC(CNC(=N)N)C(=O)NC(CCCNC(=N)N)C(=O)NCCCCC(N)C(=O)NC(CCCCNC(=O)C(CCCNC(=N)N)NC(=O)C(CNC(=N)N)CC(=O)C(N)CCCNC(=N)N)C(=O)NC(CCCCNC(=O)C(CCCNC(=N)N)NC(=O)C(CNC(=N)N)CC(=O)C(N)CCCNC(=N)N)C(=O)NC(CCCCNC(=O)C(CCCNC(=N)N)NC(=O)C(CNC(=N)N)CC(=O)C(N)CCCNC(=N)N)C(=O)NC(CCCCNC(=O)C(CCCNC(=N)N)NC(=O)C(CNC(=N)N)CC(=O)C(N)CCCNC(=N)N)C(=O)NCCCCCC(=O)NCCCCCC(N)=O (stereo not shown) [(1-B)], the “siRNA transfection efficiency in cells (%)” value [1, 8] was 5.3%, the “siRNA transfection efficiency in cells (%)” value [1, 9] was 4.4% and the “siRNA transfection efficiency in cells (%)” value [1, 10] was 7.0%. For the same compound, the “siRNA transfection efficiency in cells (%)” value [2, 8] was 3.5%, the “siRNA transfection efficiency in cells (%)” value [2, 9] was 10.1% and the “siRNA transfection efficiency in cells (%)” value [2, 10] was 42.0%. For the same compound, the “siRNA transfection efficiency in cells (%)” value [3, 8] was 11.6%, the “siRNA transfection efficiency in cells (%)” value [3, 9] was 19.2% and the “siRNA transfection efficiency in cells (%)” value [3, 10] was 60.7%. For the same compound, the “DNA transfection efficiency in cells (%)” value [4, 11] was 61.7%, the “DNA transfection efficiency in cells (%)” value [4, 12] was 77.2% and the “DNA transfection efficiency in cells (%)” value [4, 13] was 61.5%. The “DNA transfection efficiency in cells (%)” value [5, 11] was 65.0%, the “DNA transfection efficiency in cells (%)” value [5, 12] was 76.1% and the “DNA transfection efficiency in cells (%)” value [5, 13] was 83.8%. For the same compound, the “suitability for introducing nucleic acids into cells (conclusion from Table 1)” value ([5]; conclusion over PC3, UMUC3, T24 and NIH-3T3 cells) was “excellently suitable for introducing nucleic acids into cells”, the “DNA transfection efficiency in cells (%)” value [6, 11] was 13.4% and the “DNA transfection efficiency in cells (%)” value [6, 12] was 26.0%. The “DNA transfection efficiency in cells (%)” value [6, 13] was 31.4%, the “DNA transfection efficiency in cells (%)” value [7, 11] was 84.0% and the “DNA transfection efficiency in cells (%)” value [7, 12] was 93.2%. The “DNA transfection efficiency in cells (%)” value [7, 13] was 87.0%.
